Source: patent publication US7375080B1, “Immobilized lactoferrin (Im-LF) antimicrobial agents and uses thereof” (priority 1999, dated 2008)
Read-outs that look alike come from different tables or passages of the source.

Columns and labels:
[1] = system: E. coli serotype O157:H7 (strain ATCC43895); type: cell-based
[2] = system: E. coli O157:H7 strain ATCC43895; test: Microbial adhesion assay: detachment of 3H-thymidine labeled bacteria from beef tissue by wash; type: cell-based

| SMILES | GROWTH (%) [1] | % BACTERIAL CELLS DETACHED IN 1-MINUTE [2] | % BACTERIAL CELLS DETACHED IN 1-MINUTE ([2]; Lean tissue (beef)) | % BACTERIAL CELLS DETACHED IN 1-MINUTE ([2]; Surface tissue (neck) (beef)) |
| --- | --- | --- | --- | --- |
| [Cl-].[Na+] [0.1 M sodium chloride, sodium chloride] | 100% | – | – | – |
| O=C(O)CC(O)(CC(=O)O)C(=O)O [0.001 M citric acid, citric acid] | 103% | – | – | – |
| CC(O)C(=O)O (stereo not drawn) [Lactic acid (2%), Lactic acid] | – | 68% | 75% | 62% |
| O=C([O-])O.[Na+] [0.01 M sodium bicarbonate, sodium bicarbonate] | 112% | – | – | – |
